According to patent publication US10722520B2, “Heterocyclic compounds and their use in preventing or treating bacterial infections” (MUTABILIS, priority 2016, dated 2020):

Columns and labels:
[1] = target: KPC-2 (Klebsiella pneumoniae, UniProt Q9F663)
[2] = target: TEM-1 (Escherichia coli, UniProt P62593)
[3] = target: CTX-M-15 (Escherichia coli, UniProt Q9EXV5)
[4] = target: CMY-37 (Citrobacter freundii, UniProt P05193); conditions: read-out: IC50 β-lactamase CMY-37
[5] = test system: E. coli 190317; test: MIC of ceftazidime (CAZ) at fixed concentration of compound (synergy), broth microdilution; format: cell-based; conditions: MIC of ceftazidime with compound fixed at 4 μg/mL; strain 190317 (E. coli)
Procedure, shortened: (§1)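 Visual end point: lowest concentration that blocked growth. Conditions: cation-adjusted Mueller-Hinton broth, 5×10^5 cfu/mL final inoculum of log-phase bacteria, 16-20 h, 35° C, ambient atmosphere.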

[6] = test system: E. coli 131119; test: as above; format: cell-based; conditions: MIC of ceftazidime with compound fixed at 4 μg/mL; strain 131119 (E. coli)
Procedure, shortened: as §1

[7] = test system: K. pneumoniae UFR68; test: as above; format: cell-based; conditions: MIC of ceftazidime with compound fixed at 4 μg/mL; strain UFR68 (K. pneumoniae)
Procedure, shortened: as §1

[8] = test system: K. oxytoca UFR21; test: as above; format: cell-based; conditions: MIC of ceftazidime with compound fixed at 4 μg/mL; strain UFR21 (K. oxytoca)
Procedure, shortened: as §1

[9] = test system: K. pneumoniae 6299; test: as above; format: cell-based; conditions: MIC of ceftazidime with compound fixed at 4 μg/mL; strain 6299 (K. pneumoniae)
Procedure, shortened: as §1

[10] = test system: K. pneumoniae 160143; test: as above; format: cell-based; conditions: MIC of ceftazidime with compound fixed at 4 μg/mL; strain 160143 (K. pneumoniae)
Procedure, shortened: as §1

[11] = test system: E. cloacae UFR70; test: as above; format: cell-based; conditions: MIC of ceftazidime with compound fixed at 4 μg/mL; strain UFR70 (E. cloacae)
Procedure, shortened: as §1

[12] = test system: E. coli UFR18; test: as above; format: cell-based; conditions: MIC of ceftazidime with compound fixed at 4 μg/mL; strain UFR18 (E. coli)
Procedure, shortened: as §1

[13] = test system: E. coli UFR39; test: as above; format: cell-based; conditions: MIC of ceftazidime with compound fixed at 4 μg/mL; strain UFR39 (E. coli)
Procedure, shortened: as §1

[14] = test system: E. coli RGN238; test: as above; format: cell-based; conditions: MIC of ceftazidime with compound fixed at 4 μg/mL; strain RGN238 (E. coli)
Procedure, shortened: as §1

[15] = test system: E. cloacae 260508; test: as above; format: cell-based; conditions: MIC of ceftazidime with compound fixed at 4 μg/mL; strain 260508 (E. cloacae)
Procedure, shortened: as §1

[16] = test system: E. cloacae UFR85; test: as above; format: cell-based; conditions: MIC of ceftazidime with compound fixed at 4 μg/mL; strain UFR85 (E. cloacae)
Procedure, shortened: as §1

[17] = test system: E. coli UFR32; test: as above; format: cell-based; conditions: MIC of ceftazidime with compound fixed at 4 μg/mL; strain UFR32 (E. coli)
Procedure, shortened: as §1

[18] = test system: E. coli UFR61O; test: as above; format: cell-based; conditions: MIC of ceftazidime with compound fixed at 4 μg/mL; strain UFR61O (E. coli)
Procedure, shortened: as §1

[19] = test system: E. cloacae P99; test: as above; format: cell-based; conditions: MIC of ceftazidime with compound fixed at 4 μg/mL; strain P99 (E. cloacae)
Procedure, shortened: as §1

[20] = test system: E. coli UFR41; test: as above; format: cell-based; conditions: MIC of ceftazidime with compound fixed at 4 μg/mL; strain UFR41 (E. coli)
Procedure, shortened: as §1

[21] = test system: E. cloacae UFR51; test: as above; format: cell-based; conditions: MIC of ceftazidime with compound fixed at 4 μg/mL; strain UFR51 (E. cloacae)
Procedure, shortened: as §1

[22] = test system: K. pneumoniae 200047; test: as above; format: cell-based; conditions: MIC of ceftazidime with compound fixed at 4 μg/mL; strain 200047 (K. pneumoniae)
Procedure, shortened: as §1

[23] = test system: K. pneumoniae UFR77; test: as above; format: cell-based; conditions: MIC of ceftazidime with compound fixed at 4 μg/mL; strain UFR77 (K. pneumoniae)
Procedure, shortened: as §1

[24] = test system: E. coli UFR74; test: as above; format: cell-based; conditions: MIC of ceftazidime with compound fixed at 4 μg/mL; strain UFR74 (E. coli)
Procedure, shortened: as §1

[25] = test system: P. aeruginosa CIP107051; test: as above; format: cell-based; conditions: MIC of ceftazidime with compound fixed at 4 μg/mL; strain CIP107051 (P. aeruginosa)
Procedure, shortened: as §1

[26] = test system: K. pneumoniae UFR24; test: as above; format: cell-based; conditions: MIC of ceftazidime with compound fixed at 4 μg/mL; strain UFR24 (K. pneumoniae)
Procedure, shortened: as §1

[27] = test system: K. pneumoniae BAA-1898; test: as above; format: cell-based; conditions: MIC of ceftazidime with compound fixed at 4 μg/mL; strain BAA-1898 (K. pneumoniae)
Procedure, shortened: as §1

[28] = target: OXA-48 (Klebsiella pneumoniae, UniProt Q6XEC0)
Chain of OXA-48 (Q6XEC0 23-265, looked up, species assumed): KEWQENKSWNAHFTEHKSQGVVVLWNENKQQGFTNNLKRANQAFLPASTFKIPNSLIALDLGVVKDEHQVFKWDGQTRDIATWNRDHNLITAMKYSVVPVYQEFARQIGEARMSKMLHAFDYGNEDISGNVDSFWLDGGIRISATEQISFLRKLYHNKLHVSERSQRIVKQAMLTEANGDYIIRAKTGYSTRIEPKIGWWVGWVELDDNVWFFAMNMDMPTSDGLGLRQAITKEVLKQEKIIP

[29] = target: SHV-1 (Klebsiella pneumoniae, UniProt P0AD64)
Chain of SHV-1 (P0AD64 22-286): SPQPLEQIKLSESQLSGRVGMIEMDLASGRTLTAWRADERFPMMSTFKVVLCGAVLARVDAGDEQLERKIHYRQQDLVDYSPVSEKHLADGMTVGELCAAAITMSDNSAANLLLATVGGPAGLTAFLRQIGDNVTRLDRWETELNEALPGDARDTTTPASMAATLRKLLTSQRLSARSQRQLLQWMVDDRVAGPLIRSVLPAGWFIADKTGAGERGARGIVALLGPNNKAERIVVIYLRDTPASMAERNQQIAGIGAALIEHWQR

[30] = target: OXA-15 (Pseudomonas aeruginosa, UniProt Q51574); test: biochemical
Chain of OXA-15 (Q51574 22-275): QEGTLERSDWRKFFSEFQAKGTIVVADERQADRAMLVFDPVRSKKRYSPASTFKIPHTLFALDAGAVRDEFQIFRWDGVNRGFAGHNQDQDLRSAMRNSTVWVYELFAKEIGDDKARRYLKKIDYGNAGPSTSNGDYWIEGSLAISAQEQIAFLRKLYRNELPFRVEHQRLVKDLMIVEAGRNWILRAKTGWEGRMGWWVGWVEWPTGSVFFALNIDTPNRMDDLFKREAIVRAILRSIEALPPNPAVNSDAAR

Chain of TEM-1 (P62593 24-286 limits assumed): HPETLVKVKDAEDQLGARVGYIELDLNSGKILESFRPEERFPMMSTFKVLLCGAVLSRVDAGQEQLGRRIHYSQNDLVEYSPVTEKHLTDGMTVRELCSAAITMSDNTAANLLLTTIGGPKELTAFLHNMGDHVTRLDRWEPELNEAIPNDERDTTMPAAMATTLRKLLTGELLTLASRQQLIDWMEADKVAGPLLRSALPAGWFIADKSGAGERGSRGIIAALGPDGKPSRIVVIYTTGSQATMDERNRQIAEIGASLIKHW
Chain of KPC-2 (Q9F663 25-293, looked up, species assumed): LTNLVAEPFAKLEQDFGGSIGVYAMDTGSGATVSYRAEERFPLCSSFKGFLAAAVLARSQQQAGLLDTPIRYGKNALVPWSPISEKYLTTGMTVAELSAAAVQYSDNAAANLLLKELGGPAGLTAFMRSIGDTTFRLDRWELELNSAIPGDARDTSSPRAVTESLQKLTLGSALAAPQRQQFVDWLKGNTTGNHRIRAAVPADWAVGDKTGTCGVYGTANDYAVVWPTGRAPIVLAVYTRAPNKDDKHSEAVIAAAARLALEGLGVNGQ
Chain of CTX-M-15 (Q9EXV5 29-291, species assumed): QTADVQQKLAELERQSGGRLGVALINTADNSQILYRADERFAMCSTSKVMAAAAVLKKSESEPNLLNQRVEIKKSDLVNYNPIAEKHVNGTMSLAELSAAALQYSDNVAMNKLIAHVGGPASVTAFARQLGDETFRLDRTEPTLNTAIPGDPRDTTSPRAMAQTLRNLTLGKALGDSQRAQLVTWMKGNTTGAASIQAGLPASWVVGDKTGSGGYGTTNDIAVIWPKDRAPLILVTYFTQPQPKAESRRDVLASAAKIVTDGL
Chain of CMY-37 (P05193 21-381 limits assumed): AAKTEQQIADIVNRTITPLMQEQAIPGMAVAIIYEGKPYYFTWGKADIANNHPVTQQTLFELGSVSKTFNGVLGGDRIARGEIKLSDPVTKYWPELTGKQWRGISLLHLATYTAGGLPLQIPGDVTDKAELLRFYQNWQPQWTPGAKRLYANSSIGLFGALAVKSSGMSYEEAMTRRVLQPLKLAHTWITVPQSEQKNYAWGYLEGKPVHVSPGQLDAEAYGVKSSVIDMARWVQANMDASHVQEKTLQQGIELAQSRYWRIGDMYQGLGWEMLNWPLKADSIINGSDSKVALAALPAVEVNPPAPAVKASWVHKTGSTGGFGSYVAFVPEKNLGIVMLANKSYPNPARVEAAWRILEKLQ

O=C1N2CC(n3ccsc3=O)=CC(C2)N1OS(=O)(=O)[O-].[Na+] (centres unmarked) [Example 1, Sodium [7-oxo-3-(2-oxo-thiazol-3-yl)-1,6-diaza-bicyclo[3.2.1]oct-3-en-6-yl]sulfate]
92 nM: IC50 [30]
1.9 nM: IC50 [28]
33 nM: IC50 [4]
≤0.25: MIC combination of CAZ and compounds of the invention at 4 μg/mL [9] | MIC combination of CAZ and compounds of the invention at 4 μg/mL [10] | MIC combination of CAZ and compounds of the invention at 4 μg/mL [11] | MIC combination of CAZ and compounds of the invention at 4 μg/mL [18] | MIC combination of CAZ and compounds of the invention at 4 μg/mL [22] | MIC combination of CAZ and compounds of the invention at 4 μg/mL [23] | MIC combination of CAZ and compounds of the invention at 4 μg/mL [24] | MIC combination of CAZ and compounds of the invention at 4 μg/mL [27]
1.5 nM: IC50 [29]
0.55 nM: IC50 [3]
8: MIC combination of CAZ and compounds of the invention at 4 μg/mL [25]
13 nM: IC50 [1]
0.25 nM: IC50 [2]
<0.25: MIC combination of CAZ and compounds of the invention at 4 μg/mL [5] | MIC combination of CAZ and compounds of the invention at 4 μg/mL [6] | MIC combination of CAZ and compounds of the invention at 4 μg/mL [7] | MIC combination of CAZ and compounds of the invention at 4 μg/mL [12] | MIC combination of CAZ and compounds of the invention at 4 μg/mL [13] | MIC combination of CAZ and compounds of the invention at 4 μg/mL [14] | MIC combination of CAZ and compounds of the invention at 4 μg/mL [15] | MIC combination of CAZ and compounds of the invention at 4 μg/mL [16] | MIC combination of CAZ and compounds of the invention at 4 μg/mL [17] | MIC combination of CAZ and compounds of the invention at 4 μg/mL [19] | MIC combination of CAZ and compounds of the invention at 4 μg/mL [21]
0.5: MIC combination of CAZ and compounds of the invention at 4 μg/mL [8] | MIC combination of CAZ and compounds of the invention at 4 μg/mL [20] | MIC combination of CAZ and compounds of the invention at 4 μg/mL [26]

O=C1N2CC(n3ccnn3)=C[C@H](C2)N1OS(=O)(=O)O [Example 6, sodium [(5R)-7-oxo-3-(triazol-1-yl)-1,6-diazabicyclo[3.2.1]oct-3-en-6-yl]sulfate]
4: MIC combination of CAZ and compounds of the invention at 4 μg/mL [25]
0.58 nM: IC50 [3]
0.36 nM: IC50 [2]
<0.25: MIC combination of CAZ and compounds of the invention at 4 μg/mL [5] | MIC combination of CAZ and compounds of the invention at 4 μg/mL [6] | MIC combination of CAZ and compounds of the invention at 4 μg/mL [7] | MIC combination of CAZ and compounds of the invention at 4 μg/mL [8] | MIC combination of CAZ and compounds of the invention at 4 μg/mL [9] | MIC combination of CAZ and compounds of the invention at 4 μg/mL [10] | MIC combination of CAZ and compounds of the invention at 4 μg/mL [11] | MIC combination of CAZ and compounds of the invention at 4 μg/mL [12] | MIC combination of CAZ and compounds of the invention at 4 μg/mL [13] | MIC combination of CAZ and compounds of the invention at 4 μg/mL [14] | MIC combination of CAZ and compounds of the invention at 4 μg/mL [15] | MIC combination of CAZ and compounds of the invention at 4 μg/mL [16] | MIC combination of CAZ and compounds of the invention at 4 μg/mL [17] | MIC combination of CAZ and compounds of the invention at 4 μg/mL [18] | MIC combination of CAZ and compounds of the invention at 4 μg/mL [19] | MIC combination of CAZ and compounds of the invention at 4 μg/mL [20] | MIC combination of CAZ and compounds of the invention at 4 μg/mL [21] | MIC combination of CAZ and compounds of the invention at 4 μg/mL [22] | MIC combination of CAZ and compounds of the invention at 4 μg/mL [23] | MIC combination of CAZ and compounds of the invention at 4 μg/mL [24] | MIC combination of CAZ and compounds of the invention at 4 μg/mL [26] | MIC combination of CAZ and compounds of the invention at 4 μg/mL [27]
21 nM: IC50 [30]
1.9 nM: IC50 [29]
0.38 nM: IC50 [28]
2.1 nM: IC50 [1]
